Experimental data taken from patent publication US20020028938A1, “Prostaglandin endoperoxide H synthase biosynthesis inhibitors” (priority 1997, published 2002).

Tests used:
[1] = biological target: T1, recombinant human Cox-1 (r-hu Cox1) (Homo sapiens, UniProt P23219); experiment: Recombinant human PGHS-1 enzyme assay (RHUCX1); assay type: biochemical
T1 construct: made in house; host or cells: baculovirus/Sf9 insect cells (microsomes)
Protocol: (§1) To compare the mean responses of the treatment groups, analysis of variance was applied. Percent inhibition values were determined by comparing the individual treatment mean values to the mean of the control group. Linear regression was used to estimate IC50's/ED50's in appropriate assays.
(§2) EIA reagents for prostaglandin determination were purchased from Perseptive Diagnostics, (Cambridge, Mass.). Prostaglandin E2 (PGE2) levels in lavage fluids were determined after the samples were dried under nitrogen and reconstituted with assay buffer. PGE2 levels in enzyme assays or cell culture media were measured against standards prepared in the same milieu. The immunoassays were conducted as recommended by the manufacturer. The EIA was conducted in 96 well microtiter plates (Nunc Roskilde, Denmark) and optical density was measured using a microplate reader (Vmax, Molecular Devices Corp., Menlo Park, Calif.).
(§3) Inhibition of prostaglandin biosynthesis in vitro was evaluated using recombinant human Cox-1 (r-hu Cox1) and Cox-2 (r-hu Cox-2) enzyme assays. […] The reaction was allowed to run for 2.5 minutes at room temperature prior to quenching with HCl and neutralization with NaOH. PGE2 production in the presence and absence of the drug was determined by EIA analysis. The EIA was conducted in 96 well microtiter plates (Nunc Roskilde, Denmark) and optical density was measured using a microplate reader (Vmax, Molecular Devices Corp., Menlo Park, Calif.). EIA reagents for prostaglandin determination were purchased from Perseptive Diagnostics (Cambridge, Mass.). PGE2 levels were measured against standards prepared in the same milieu. The immunoassays were conducted as recommended by the manufacturer.

[2] = biological target: T2, recombinant human Cox-2 (r-hu Cox-2) (Homo sapiens, UniProt P35354); experiment: Recombinant human PGHS-2 enzyme assay (RHUCX2); assay type: biochemical; details: for IC50: read-out: RHUCX2 IC50 (parenthetical value)
T2 construct: made in house; host or cells: baculovirus/Sf9 insect cells (microsomes)
T2 sequence (P35354 18-604): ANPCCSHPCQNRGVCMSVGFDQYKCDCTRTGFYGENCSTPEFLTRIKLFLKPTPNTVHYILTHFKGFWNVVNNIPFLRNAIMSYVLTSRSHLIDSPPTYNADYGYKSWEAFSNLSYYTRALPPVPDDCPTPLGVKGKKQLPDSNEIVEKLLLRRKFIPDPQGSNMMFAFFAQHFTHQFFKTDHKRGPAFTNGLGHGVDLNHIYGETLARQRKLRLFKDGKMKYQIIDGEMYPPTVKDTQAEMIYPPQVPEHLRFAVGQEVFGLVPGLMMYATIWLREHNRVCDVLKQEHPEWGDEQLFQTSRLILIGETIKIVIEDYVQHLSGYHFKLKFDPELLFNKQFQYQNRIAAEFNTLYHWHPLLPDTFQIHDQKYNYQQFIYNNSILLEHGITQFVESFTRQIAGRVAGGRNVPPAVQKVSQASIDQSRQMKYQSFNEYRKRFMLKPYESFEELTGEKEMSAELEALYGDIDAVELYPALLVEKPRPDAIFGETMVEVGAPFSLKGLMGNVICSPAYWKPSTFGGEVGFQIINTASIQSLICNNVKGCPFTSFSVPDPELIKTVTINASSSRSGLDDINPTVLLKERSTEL
Protocol: as §1, §2, §3

[3] = 100 μM, read-out: RHUCX1 % Inh. at Dose
[4] = 0.1 μM, read-out: RHUCX2 % Inh. at Dose
[5] = 1 μM, read-out: RHUCX2 % Inh. at Dose

T1 sequence (P23219 24-599): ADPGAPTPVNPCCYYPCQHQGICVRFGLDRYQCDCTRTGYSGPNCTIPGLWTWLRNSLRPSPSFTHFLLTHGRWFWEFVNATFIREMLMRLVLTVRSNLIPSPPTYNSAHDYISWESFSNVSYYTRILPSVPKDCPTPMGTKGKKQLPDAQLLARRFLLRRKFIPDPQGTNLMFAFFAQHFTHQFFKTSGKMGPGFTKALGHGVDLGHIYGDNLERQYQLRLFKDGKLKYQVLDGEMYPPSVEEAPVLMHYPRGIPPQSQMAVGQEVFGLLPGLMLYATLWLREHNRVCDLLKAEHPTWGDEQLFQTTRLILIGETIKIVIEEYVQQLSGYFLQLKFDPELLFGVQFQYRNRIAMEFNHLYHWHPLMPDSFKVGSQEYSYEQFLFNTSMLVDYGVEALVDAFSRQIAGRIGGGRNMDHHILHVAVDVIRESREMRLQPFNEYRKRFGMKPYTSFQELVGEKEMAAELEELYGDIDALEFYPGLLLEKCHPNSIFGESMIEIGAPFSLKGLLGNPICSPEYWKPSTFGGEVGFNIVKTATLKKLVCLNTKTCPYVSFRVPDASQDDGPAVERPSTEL

Structure (SMILES) | RHUCX2 % Inh. at Dose (μM) ([2]; 0.1 μM) | RHUCX2 % Inh. at Dose (μM) ([2]; 1 μM) | RHUCX1 % Inh. at Dose (μM) ([1]; 100 μM) | inhibition at 100 µM [1, 3] | further results
CS(=O)(=O)c1ccc(-c2cnn(-c3csc4ccccc34)c(=O)c2-c2ccc(F)cc2)cc1 [Example 107] | 36 @ 0.1% | 86 @ 1% | – | – | RHUCX1 % Inh. at Dose (μM) ([1]; 1 μM): 50 @ 1%; RHUCX1 % Inh. at Dose (μM) ([1]; 10 μM): 88 @ 10%
CS(=O)(=O)c1ccc(-c2cnn(-c3cccc(Br)c3)c(=O)c2Oc2ccc(F)cc2)cc1 [Example 110] | 50 @ 0.1% | 93 @ 1% | 5 @ 100% | – | –
CC1CCC(n2ncc(-c3ccc(S(C)(=O)=O)cc3)c(-c3ccc(F)cc3)c2=O)C1 (stereo not drawn) [Example 133] | – | – | 23 @ 100% | – | IC50 [2]: 358 nM
CS(=O)(=O)c1ccc(-c2cnn(-c3ccoc3)c(=O)c2-c2ccc(F)cc2)cc1 [Example 183, 2-(3-Furyl)-4-(4-fluorophenyl)-5-[4-(methylsulfonyl)phenyl]-3(2H)-pyrdazinone] | 51 @ 0.1% | 97 @ 1% | 25 @ 100% | – | –
CS(=O)(=O)c1ccc(-c2cnn(-c3ccc(F)cc3)c(=O)c2C#Cc2ccccc2)cc1 [Example 231, 2-(4-Fluorophenyl)-4-(pheylethynyl)-5-[4-(methylsulfonl)phenyl]-3(2H)-pyridazinone] | 68 @ 0.1% | 90 @ 1% | 7 @ 100% | – | –
O=c1c(-c2ccc(F)cc2)c(-c2ccc(S(=O)(=O)C(F)(F)F)cc2)cnn1Cc1ccccc1 [Example 260, 2-Benzyl-4-(4-fluorophenyl)-5-[4-(trifluoromethylsulfonyl)phenyl]-3(2H)-pyridazinone] | – | – | – | 8% | inhibition at 10 µM ([2]; 10 μM, read-out: RHUCX2 % Inh. at Dose): 2%
CS(=O)(=O)c1ccc(-c2cnn(Cc3ccccc3)c(=O)c2-c2cc3ccccc3o2)cc1 [Example 318, 2-Benzyl-4-(2-benzofuranyl)-5-[4-(methylsulfonyl)phenyl]-3(2H)-pyridazinone] | – | – | – | 23% | inhibition at 0.1 µM [2, 4]: 77%; inhibition at 1 µM [2, 5]: 97%
CN(Cc1ccccc1)c1c(-c2ccc(S(C)(=O)=O)cc2)cnn(-c2cccc(Cl)c2)c1=O [Example 354, 2-(3-Chlorophenyl)-4-(N-methylbenzylamnino)-5-[4-(methylsulfonyl)phenyl]-3(2H)-pyridazinone] | 36 @ 0.1% | 45 @ 1% | ∠@ 100 | – | RHUCX2 % Inh. at Dose (μM) ([2]; 10 μM): 45 @ 10%
CS(=O)(=O)c1ccc(-c2cnn(-c3cccc(Cl)c3)c(=O)c2C2CCCC2)cc1 [Example 362, 2-(3-Chlorophenyl)-4-(cyclopentyl)-5-[4-(methylonylsulfonyl)phenyl]-(2H)-pyridazinone] | – | 49 @ 1% | 1 @ 100% | – | RHUCX2 % Inh. at Dose (μM) ([2]; 10 μM): 84 @ 10%
Cc1ccc(-c2c(-c3ccc(S(N)(=O)=O)cc3)cnn(-c3ccc(F)cc3)c2=O)cc1F [Example 387] | 65 @ 0.1% | 76 @ 1% | – | – | RHUCX1 % Inh. at Dose (μM) ([1]; 1 μM): 60 @ 1%; RHUCX1 % Inh. at Dose (μM) ([1]; 10 μM): 57 @ 10%; RHUCX2 % Inh. at Dose (μM) ([2]; 0.01 μM): 56 @ 0.01%
NS(=O)(=O)c1ccc(-c2cnn(-c3cccc(Cl)c3)c(=O)c2CCc2ccccc2)cc1 [Example 393, 2-(3-Chlorophenyl)-4-(phenethyl)-5-[4-(aminosulfonyl)phenyl]-3(2H)-pyridazinone] | – | – | – | 15% | inhibition at 0.1 µM [2, 4]: 58%; inhibition at 1 µM [2, 5]: 85%
CC(C)CCOc1c(-c2ccc(S(N)(=O)=O)cc2)cnn(-c2ccc(F)cc2)c1=O [Example 398, 2-(4-Fluorophenyl)-4-(3-methylbutoxy)-5-[4-(aminosulfonyl)phenyl]-3(2H)-pyrdazinone] | – | – | – | 26% | IC50 [2]: 202 nM
CC(C)COc1c(-c2ccc(S(N)(=O)=O)c(F)c2)cnn(-c2cccc(Cl)c2)c1=O [Example 412] | – | – | – | 31% | IC50 [2]: 2 nM
CC(C)CCCc1c(-c2ccc(S(C)(=O)=O)cc2)cnn(-c2cccc(Cl)c2)c1=O [Example 421, 2-(3-Chlorophenyl)-4-(4-methylpentyl)-5-[4-(methylsulfonyl)phenyl]-3(2H)-pyridazinone] | – | – | – | – | IC50 ([1]; read-out: RHUCX1 IC50 (parenthetical value)): 269 nM; inhibition at 0.01 µM ([2]; 0.01 μM, read-out: RHUCX2 % Inh. at Dose): 38%; inhibition at 0.1 µM [2, 4]: 81%; inhibition at 1 µM [2, 5]: 92%
CC(C)=CCOc1c(-c2ccc(S(C)(=O)=O)cc2)cnn(-c2ccc(F)cc2)c1=O [Example 422] | 37 @ 0.1% | 52 @ 1% | 53 @ 100% | – | RHUCX1 % Inh. at Dose (μM) ([1]; 1 μM): 76 @ 1%; RHUCX1 % Inh. at Dose (μM) ([1]; 10 μM): 82 @ 10%

More lines, main results first:

RHUCX2 % Inh. at Dose (μM) ([2]; 0.1 μM) | RHUCX2 % Inh. at Dose (μM) ([2]; 1 μM) | RHUCX1 % Inh. at Dose (μM) ([1]; 100 μM) | inhibition at 100 µM [1, 3] | Structure (SMILES) | further results
55 @ 0.1% | 79 @ 1% | 0 @ 100% | – | CC(C)CCc1c(-c2ccc(S(C)(=O)=O)cc2)cnn(CC(F)(F)F)c1=O [Example 209] | RHUCX2 % Inh. at Dose (μM) ([2]; 0.01 μM): 40 @ 0.01%
– | – | – | 0% | CS(=O)(=O)c1ccc(-c2cnn(CC(F)(F)F)c(=O)c2-c2ccc(C(F)(F)F)cc2)cc1 [Example 213, 2-(2,2,2-Trifluoroethyl)-4-(4-trifluoromethylphenyl)-5-[4-(methylsulfonyl)phenyl]-3(2H)-pridazinone] | IC50 [2]: 812 nM
– | – | – | 20% | Cc1ccc(-c2c(-c3ccc(S(C)(=O)=O)cc3)cnn(CC(F)(F)F)c2=O)cc1F [Example 219, 2-(2,2,2-Trifluoroethyl)-4-(3-fluoro-4-methylphenyl)-5-[4-(methylsulfonyl)phenyl]-3(2H)-pyridazinone] | inhibition at 0.1 µM [2, 4]: 75%; inhibition at 1 µM [2, 5]: 90%
– | – | – | 51% | COc1c(F)cc(-c2c(-c3ccc(S(C)(=O)=O)cc3)cnn(CC(F)(F)F)c2=O)cc1F [Example 220, 2-(2,2,2-Trifluoroethyl)-4-(3,5-difluoro-4-methoxyphenyl)-5-[4-(methylsulfonyl)phenyl]-3(2H)-pyridazinone] | inhibition at 1 µM ([1]; 1 μM, read-out: RHUCX1 % Inh. at Dose): 38%; inhibition at 0.1 µM [2, 4]: 90%; inhibition at 1 µM [2, 5]: 96%
89 @ 0.1% | – | – | – | CS(=O)(=O)c1ccc(-c2cnn(-c3ccc(F)c(F)c3)c(=O)c2-c2cccs2)cc1 [Example 237, 2-(3,4-Difluorophenyl)-4-(2-thienyl)-5-[4-(methylsulfonyl)phenyl]-3(2H)-pridazinone] | RHUCX1 % Inh. at Dose (μM) ([1]; 1 μM): 44 @ 1%; RHUCX1 % Inh. at Dose (μM) ([1]; 10 μM): 54 @ 10%
53 @ 0.1% | 76 @ 1% | 1 @ 100% | – | CS(=O)(=O)c1ccc(-c2cnn(CC(F)(F)F)c(=O)c2Oc2cc(C(F)(F)F)ccc2F)cc1 [Example 263, 2-(2,2,2-Trifluoroethyl)-4-(2-fluoro-5-trifluoromethylphenoxy)-5-[4-(methylsulfonyl)phenyl]-3(2H)-pridazinone] | RHUCX2 % Inh. at Dose (μM) ([2]; 10 μM): 85 @ 10%
55 @ 0.1% | 70 @ 1% | 0 @ 100% | – | COc1ccc(CCOc2c(-c3ccc(S(C)(=O)=O)cc3)cnn(CC(F)(F)F)c2=O)cc1OC [Example 272] | –
– | 42 @ 1% | 16 @ 100% | – | CS(=O)(=O)c1ccc(-c2cnn(CC(F)(F)F)c(=O)c2OCCN2CCOCC2)cc1 [Example 273] | RHUCX2 % Inh. at Dose (μM) ([2]; 10 μM): 54 @ 10%
54 @ 0.1% | 71 @ 1% | 0 @ 100% | – | CS(=O)(=O)c1ccc(-c2cnn(CC(F)(F)F)c(=O)c2SC2CCCC2)cc1 [Example 283] | RHUCX2 % Inh. at Dose (μM) ([2]; 10 μM): 90 @ 10%
– | 4 @ 1% | 7 @ 100% | – | CS(=O)(=O)c1ccc(-c2cnn(CC(F)(F)F)c(=O)c2Nc2ccc(F)cc2F)cc1 [Example 314] | RHUCX2 % Inh. at Dose (μM) ([2]; 10 μM): 51 @ 10%
